“And” between values parts separate entries of the source, which are not always exact repeats. Identical values can stand only once.
Key:
[1] = system: castrated male Sprague Dawley rats; assay: Ventral Prostate and Seminal Vesicle Weight In Vivo Assay; design: species or system rat; key: active: non weight adjusted prostate weight was ≦40 mg or the % Inhibition prostate weight, body weight adjusted was ≧40% @ 2 mg/day dosage; inactive: they did not meet the specified criteria defined above; details: immature castrated male rats, once daily for five days, with testosterone propionate 2 mg/kg subcutaneously
Method: Immature (approximately 50 g) castrated male Sprague Dawley rats (Charles River) were treated once daily for five days with test compound (usually given orally at 40 mg/kg in a volume of 0.3 mL, in 30% cyclodextrin or 0.5% methylcellulose vehicle) and with testosterone propionate (given subcutaneously by injection at the nape of the neck at 2 mg/kg, in a volume of 0.1 mL in sesame oil). On the sixth day, the rats were euthanized by asphyxiation in carbon dioxide. Ventral prostates and seminal vesicles were removed and their wet weights determined.
A test compound was said to be “active” if the non weight adjusted prostate weight was ≦40 mg or the % Inhibition prostate weight, body weight adjusted was ≧40% @ 2 mg/day dosage.

androgen receptor = target: T1, androgen receptor (Rattus norvegicus, UniProt P15207); assay: COS-7 Whole-Cell Androgen Receptor Binding Assay, Adenovirus Transduction
T1 sequence (P15207 1-902): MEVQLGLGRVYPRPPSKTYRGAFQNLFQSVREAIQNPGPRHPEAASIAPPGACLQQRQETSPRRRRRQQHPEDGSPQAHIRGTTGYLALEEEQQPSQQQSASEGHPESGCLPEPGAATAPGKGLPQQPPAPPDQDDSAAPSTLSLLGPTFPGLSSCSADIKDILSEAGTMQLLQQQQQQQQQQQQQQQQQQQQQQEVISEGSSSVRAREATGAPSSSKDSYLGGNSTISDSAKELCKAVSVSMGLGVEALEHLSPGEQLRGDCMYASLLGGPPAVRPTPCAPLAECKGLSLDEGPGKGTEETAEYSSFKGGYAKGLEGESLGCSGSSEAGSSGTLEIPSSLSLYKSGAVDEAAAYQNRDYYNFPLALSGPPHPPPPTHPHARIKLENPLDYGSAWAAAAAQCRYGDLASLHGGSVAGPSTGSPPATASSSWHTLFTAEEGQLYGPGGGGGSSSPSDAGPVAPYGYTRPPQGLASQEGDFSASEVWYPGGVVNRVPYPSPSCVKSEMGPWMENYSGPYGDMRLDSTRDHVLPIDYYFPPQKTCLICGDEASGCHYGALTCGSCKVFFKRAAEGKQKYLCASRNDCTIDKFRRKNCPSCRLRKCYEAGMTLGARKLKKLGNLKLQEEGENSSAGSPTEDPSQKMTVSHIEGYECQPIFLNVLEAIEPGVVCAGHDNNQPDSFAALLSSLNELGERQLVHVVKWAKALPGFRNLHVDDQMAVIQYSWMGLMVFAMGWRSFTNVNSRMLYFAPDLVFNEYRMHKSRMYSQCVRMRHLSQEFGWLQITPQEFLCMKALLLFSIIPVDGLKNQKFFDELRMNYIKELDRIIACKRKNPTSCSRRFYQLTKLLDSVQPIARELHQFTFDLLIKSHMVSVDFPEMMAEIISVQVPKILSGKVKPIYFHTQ
Method: COS-7 cells were plated in 96-well plates at 20,000 cells per well, in a solution of DMEM/F12 (GIBCO) containing 10% (v/v) charcoal-treated fetal bovine serum (Hyclone) and lacking phenol red. The cells were then incubated overnight at 37° C. in 5% (v/v) humidified CO2.
Test compound solutions were prepared by diluting the test compound in 100% (v/v) DMSO, if necessary.
Next, 1 mL of DMEM/F12 lacking phenol red was pipetted into each of the wells of a 2-mL 96-well assay block. […] The wells were carefully mixed by pipette.
In a 15 mL or 50 mL sterile centrifuge tube, a dilution in DMEM/F12 of the adenovirus AdEasy+rAR at a moi of 1:50 per well was prepared.
The medium was removed from the 96-well plates by inversion and the plates dried very briefly, inverted, on a sterile towel. As soon as possible after medium removal, 40 μL of the diluted test compound was added to each well, in duplicate. […] The plates were then incubated for 48 hours at 37° C. in 5% (v/v) humidified CO2.
The medium was removed from the above incubated plates by inversion and dried. Each well was then washed with 0.35 mL of 1×PBS. The PBS was then removed from the plates by inversion and the plates dried.
To each well was then added 50 μL of 0.5% (v/v) Triton X-100 (Sigma) in 1×PBS and the plates placed on a rotary shaker for 5 min. The contents of each well were then transferred to an OptiPlate-96 (Packard) scintillation plate. To each well was then added 0.2 mL of Microscint-20 (Packard) and the wells counted on a TopCount (Packard).
Percent inhibition was determined by testing dilutions of the test compound (usually duplicates of 10 μM) in the binding assay. Counts per well were measured and percents of inhibition determined. […] Counts per well were measured and IC50s determined by linear regression.

## CCSCC(O)c1cc2cc([N+](=O)[O-])c(C(F)(F)F)cc2[nH]1 (racemic) [compound 158]
[1]
  active / inactive: inhibition of testosterone-enhanced prostate weight: inactive
Androgen receptor
  % Inhibition: 62% and 56%
